Values joined by “and” are separate entries in the source; they are usually repeats but may differ in a detail not shown here. Equal values may be shown once. Inconclusive results and toxic doses are left out. Cut-off read from the data, not from the text of the source: active = T/C of 150% or more; inactive = T/C below 125%. Peptide text beside a SMILES is read from it.
Test system: L1210 leukemia ip in BDF1 mice, survival T/C
Assay: NCI In Vivo Anticancer Drug Screen. Data for tumor model L1210 Leukemia (intraperitoneal) in B6D2F1 (BDF1) mice
Conditions: endpoint: mean survival time, higher = longer survival
Summary of the method: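 Mice bearing the transplanted tumor received compound or vehicle. Survival of the treated group was divided by that of the vehicle-treated control group to give the ratio.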

[1] = dose: 25.0 mg/kg/injection, schedule: Q01DX009 (ip), vehicle: Klucel (hydroxypropylcellulose) (HPC)
[2] = dose: 25.0 mg/kg/injection, schedule: Q04DX003 (ip), vehicle: Klucel (hydroxypropylcellulose) (HPC)
[3] = dose: 50.0 mg/kg/injection, schedule: Q01DX009 (ip), vehicle: Klucel (hydroxypropylcellulose) (HPC)
[4] = dose: 50.0 mg/kg/injection, schedule: Q04DX003 (ip), vehicle: Klucel (hydroxypropylcellulose) (HPC)
[5] = dose: 100.0 mg/kg/injection, schedule: Q04DX003 (ip), vehicle: Klucel (hydroxypropylcellulose) (HPC)
[6] = dose: 200.0 mg/kg/injection, schedule: Q04DX003 (ip), vehicle: Klucel (hydroxypropylcellulose) (HPC)
[7] = dose: 400.0 mg/kg/injection, schedule: Q04DX003 (ip), vehicle: Klucel (hydroxypropylcellulose) (HPC)
[8] = dose: 100.0 mg/kg/injection, schedule: Q01DX009 (ip), vehicle: saline
[9] = dose: 100.0 mg/kg/injection, schedule: Q04DX003 (ip), vehicle: saline
[10] = dose: 200.0 mg/kg/injection, schedule: Q01DX009 (ip), vehicle: saline
[11] = dose: 200.0 mg/kg/injection, schedule: Q04DX003 (ip), vehicle: saline
[12] = dose: 100.0 mg/kg/injection, schedule: Q04DX002 (ip), vehicle: Klucel (hydroxypropylcellulose) (HPC)
[13] = dose: 100.0 mg/kg/injection, schedule: Q04DX003 (ip), vehicle: saline with Tween-80
[14] = dose: 100.0 mg/kg/injection, schedule: Q01DX009 (ip), vehicle: Klucel (hydroxypropylcellulose) (HPC)

Measured: T/C

O=C1NC(=O)C2(CCCCC2)N1
inactive: dose: 6.25 mg/kg/injection, schedule: Q04DX003 (ip), vehicle: Klucel (hydroxypropylcellulose) (HPC) 94 % of control | dose: 12.5 mg/kg/injection, schedule: Q01DX009 (ip), vehicle: Klucel (hydroxypropylcellulose) (HPC) 95 % of control | dose: 12.5 mg/kg/injection, schedule: Q04DX003 (ip), vehicle: Klucel (hydroxypropylcellulose) (HPC) 94 % of control | [1] 96 % of control | [2] 87 % of control and 97 % of control | [3] 100 % of control | [4] 96 % of control and 101 % of control | dose: 75.0 mg/kg/injection, schedule: Q01DX009 (ip), vehicle: Klucel (hydroxypropylcellulose) (HPC) 102 % of control

C[N+]1(CCO)CC[N+](C)(CCCN2c3ccccc3Sc3ccc(Cl)cc32)CC1 (configuration not stated)
inactive: dose: 10.0 mg/kg/injection, schedule: Q01DX001 (ip), vehicle: carboxymethylcellulose (CMC) 98 % of control | dose: 20.0 mg/kg/injection, schedule: Q01DX001 (ip), vehicle: carboxymethylcellulose (CMC) 101 % of control | dose: 40.0 mg/kg/injection, schedule: Q01DX001 (ip), vehicle: carboxymethylcellulose (CMC) 113 % of control

S=C(c1ccccc1)N(c1ccccc1)c1ccc2ccccc2c1
inactive: [5] 98 % of control | [6] 95 % of control | [7] 94 % of control

CC(=O)[C@H]1CC[C@H]2[C@@H]3C[C@H](C)C4=CC(=O)CC[C@]4(C)[C@H]3[C@@H](O)C[C@]12C
inactive: dose: 50.0 mg/kg/injection, schedule: Q01DX009 (ip), vehicle: saline 100 % of control | dose: 50.0 mg/kg/injection, schedule: Q01DX Z (sc), vehicle: steriod suspending solution 106 % of control | dose: 50.0 mg/kg/injection, schedule: Q04DX003 (ip), vehicle: saline 95 % of control | dose: 100.0 mg/kg/injection, schedule: Q01DX001 (ip), vehicle: saline 93 % of control | [8] 94 % of control | dose: 100.0 mg/kg/injection, schedule: Q01DX Z (sc), vehicle: steriod suspending solution 103 % of control | [9] 103 % of control | dose: 200.0 mg/kg/injection, schedule: Q01DX001 (ip), vehicle: saline 104 % of control | [10] 102 % of control | dose: 200.0 mg/kg/injection, schedule: Q01DX Z (sc), vehicle: steriod suspending solution 103 % of control | [11] 102 % of control | dose: 400.0 mg/kg/injection, schedule: Q01DX Z (sc), vehicle: steriod suspending solution 98 % of control

CC(=O)NC(CO)C(=O)NCC(=O)NC(CCCN=C(N)N)C(N)=O (stereo not drawn) (Ac-Ser-Gly-Arg-NH2; configuration not given here)
inactive: dose: 25.0 mg/kg/injection, schedule: Q04DX002 (ip), vehicle: Klucel (hydroxypropylcellulose) (HPC) 100 % of control | dose: 50.0 mg/kg/injection, schedule: Q04DX002 (ip), vehicle: Klucel (hydroxypropylcellulose) (HPC) 100 % of control | [12] 100 % of control

CC(C)Cc1ccc(OC(=O)Nc2ccc(Cl)cc2)cc1
inactive: dose: 25.0 mg/kg/injection, schedule: Q04DX003 (ip), vehicle: saline with Tween-80 95 % of control | dose: 50.0 mg/kg/injection, schedule: Q04DX003 (ip), vehicle: saline with Tween-80 95 % of control | [13] 95 % of control

CC(=O)[O][Pb]([CH2]CC(C)C)([CH2]CC(C)C)[CH2]CC(C)C
inactive: dose: 0.78 mg/kg/injection, schedule: Q01DX009 (ip), vehicle: saline with Tween-80 98 % of control | dose: 0.78 mg/kg/injection, schedule: Q04DX002 (ip), vehicle: saline with Tween-80 95 % of control | dose: 1.56 mg/kg/injection, schedule: Q01DX009 (ip), vehicle: saline with Tween-80 97 % of control | dose: 1.56 mg/kg/injection, schedule: Q04DX002 (ip), vehicle: saline with Tween-80 92 % of control | dose: 3.12 mg/kg/injection, schedule: Q01DX009 (ip), vehicle: saline with Tween-80 95 % of control | dose: 3.12 mg/kg/injection, schedule: Q04DX002 (ip), vehicle: saline with Tween-80 92 % of control

O=C(Sc1cccc(Br)c1)c1ccccc1
inactive: dose: 100.0 mg/kg/injection, schedule: Q01DX001 (ip), vehicle: other 100 % of control | dose: 200.0 mg/kg/injection, schedule: Q01DX001 (ip), vehicle: other 95 % of control | dose: 400.0 mg/kg/injection, schedule: Q01DX001 (ip), vehicle: other 94 % of control

CC(=O)OC1CSC1OC(C)=O (configuration not stated)
inactive: dose: 100.0 mg/kg/injection, schedule: Q01DX001 (ip), vehicle: saline with Tween-80 95 % of control | dose: 200.0 mg/kg/injection, schedule: Q01DX001 (ip), vehicle: saline with Tween-80 93 % of control | dose: 400.0 mg/kg/injection, schedule: Q01DX001 (ip), vehicle: saline with Tween-80 98 % of control

Nc1cncc2ccccc12
inactive: dose: 25.0 mg/kg/injection, schedule: Q01DX009 (ip), vehicle: gum acacia 96 % of control | dose: 25.0 mg/kg/injection, schedule: Q04DX003 (ip), vehicle: gum acacia 100 % of control | dose: 50.0 mg/kg/injection, schedule: Q01DX009 (ip), vehicle: gum acacia 111 % of control | dose: 50.0 mg/kg/injection, schedule: Q04DX003 (ip), vehicle: gum acacia 98 % of control | dose: 100.0 mg/kg/injection, schedule: Q01DX009 (ip), vehicle: gum acacia 103 % of control | dose: 100.0 mg/kg/injection, schedule: Q04DX003 (ip), vehicle: gum acacia 102 % of control and 104 % of control

Cc1ncc(CO)c(/C=N/N=C(N)N)c1O
inactive: dose: 30.0 mg/kg/injection, schedule: Q01DX Z (oral), vehicle: methylcellulose (MC) 92 % of control | dose: 120.0 mg/kg/injection, schedule: Q01DX Z (oral), vehicle: methylcellulose (MC) 94 % of control | dose: 240.0 mg/kg/injection, schedule: Q01DX Z (oral), vehicle: methylcellulose (MC) 103 % of control

CC1Cc2ccccc2C1=O (configuration not stated)
inactive: [13] 98 % of control | dose: 200.0 mg/kg/injection, schedule: Q04DX003 (ip), vehicle: saline with Tween-80 98 % of control | dose: 400.0 mg/kg/injection, schedule: Q04DX003 (ip), vehicle: saline with Tween-80 103 % of control

CC1(C)C(C)(C)C1(Cl)Cl
inactive: [8] 100 % of control | dose: 100.0 mg/kg/injection, schedule: Q04DX003 (sc), vehicle: olive oil, sesame oil, peanut oil 112 % of control | [10] 100 % of control | dose: 200.0 mg/kg/injection, schedule: Q04DX003 (sc), vehicle: olive oil, sesame oil, peanut oil 96 % of control | dose: 400.0 mg/kg/injection, schedule: Q01DX009 (ip), vehicle: saline 100 % of control | dose: 400.0 mg/kg/injection, schedule: Q04DX003 (sc), vehicle: olive oil, sesame oil, peanut oil 107 % of control

Cc1cnc2c(NC(=O)CCl)nn(C)c2n1
inactive: [1] 98 % of control | [3] 93 % of control | [14] 93 % of control and 91 % of control | [5] 91 % of control | [6] 93 % of control

Nc1nc(O)c(N2C(=O)c3ccccc3C2=O)c(=O)[nH]1
inactive: [2] 93 % of control | [4] 96 % of control | [5] 96 % of control

CC(=O)Nc1ccc(/C=N\N=C\c2ccc(NC(C)=O)cc2)cc1
inactive: [8] 88 % of control | [9] 100 % of control | [10] 86 % of control | [11] 105 % of control | dose: 400.0 mg/kg/injection, schedule: Q04DX003 (ip), vehicle: saline 100 % of control

CCOC(=O)C(Cc1ccc(O)cc1)NP(=O)(OCCCl)OCCCl (configuration not stated)
inactive: [14] 100 % of control | [5] 95 % of control | dose: 200.0 mg/kg/injection, schedule: Q01DX009 (ip), vehicle: Klucel (hydroxypropylcellulose) (HPC) 98 % of control | [6] 90 % of control | dose: 400.0 mg/kg/injection, schedule: Q01DX009 (ip), vehicle: Klucel (hydroxypropylcellulose) (HPC) 100 % of control | [7] 94 % of control

O=C(Nc1cccc(Cl)c1Cl)Oc1cccc2ccccc12
inactive: [12] 101 % of control | dose: 200.0 mg/kg/injection, schedule: Q04DX002 (ip), vehicle: Klucel (hydroxypropylcellulose) (HPC) 108 % of control | dose: 400.0 mg/kg/injection, schedule: Q04DX002 (ip), vehicle: Klucel (hydroxypropylcellulose) (HPC) 114 % of control

C1C2CC3C1C3/C2=N\N=C1/C2CC3C(C2)C13
inactive: dose: 75.0 mg/kg/injection, schedule: Q01DX001 (ip), vehicle: saline 101 % of control | dose: 150.0 mg/kg/injection, schedule: Q01DX001 (ip), vehicle: saline 89 % of control | dose: 300.0 mg/kg/injection, schedule: Q01DX001 (ip), vehicle: saline 98 % of control

— PubChem BioAssay AID248 (DTP/NCI, 2004)
